# According to PubChem BioAssay AID720666 (NMMLSC, 2013):
# Active and inactive are the calls of the source.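 How the source made its calls: active means over 50% inhibition of PKC substrate or ERK kinase phosphorylation; inactive means the rest.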
# Tested on: TALL-104 cells, PKC substrate phosphorylation, flow cytometry
# Assay: inhibitors of PKC substrate phosphorylation, late-stage follow-up, mechanism study for lytic granule exocytosis inhibitor project, TALL-104 cells, flow cytometry, CherryPick01 (AID 720666)
# Conditions: at 30 µM; stronger effect = higher value
row,SMILES,inhibition
1,COc1ccccc1CNc1nc(NCc2ccc(C(C)C)cc2)c2sccc2n1,-50.7% (inactive)
2,O=c1c2ccccc2sn1-c1ccccc1,-24.9% (inactive)
3,CC1=NOC(=O)/C1=C/c1ccc(-c2ccc(Cl)cc2)o1,-44% (inactive)
4,O=C(Cn1sc2ccccc2c1=O)NC12CC3CC(CC(C3)C1)C2,-7.9% (inactive)
5,CC1COCC(C)N1C1=C(Cl)C(=O)c2ccccc2C1=O (configuration not stated),-212% (inactive)
6,COC(=O)c1c(NC(=O)c2nc3ccccc3s2)sc2c1CC(C)(C)NC2(C)C,-30.7% (inactive)
7,CCOC(=O)c1c(NC(=O)COc2ccccc2OCC)sc2c1CC(C)(C)NC2(C)C,-9.9% (inactive)
8,O=CNc1cc(-c2ccsc2)cn2c(-c3ccccc3)cnc12,-35.4% (inactive)
9,CCCCC[C@@H](C)N1C[C@@H](COCc2ccccc2)Oc2cc(N3CC[C@H](N(C)C)C3)ccc2S1(=O)=O,-45.9% (inactive)
10,COc1ccc(N2C(=O)CC(Sc3nnc(-c4ccccc4)o3)C2=O)cc1 (configuration not stated),1.3% (inactive)
11,Cc1cc(N2CCN(c3nc(-c4ccc([N+](=O)[O-])cc4)cs3)CC2)c2ccccc2n1,-81.1% (inactive)
12,O=C(Cn1sc2ccccc2c1=O)Nc1ccc(F)cc1,-10.3% (inactive)
13,CC1=C(C)CS(=O)N(S(=O)(=O)c2ccc(Cl)cc2)C1 (configuration not stated),-41.1% (inactive)
14,CN(C)CCNC(=O)c1ccc(-c2cn3c(-c4ccc(Oc5ccccc5)cc4)cnc3cn2)cc1,5.3% (inactive)
15,CCCCC[C@@H](C)N1C[C@@H](COCc2ccccc2)Oc2cc(N3CC[C@@H](N(C)C)C3)ccc2S1(=O)=O,-3.7% (inactive)
16,CCN(CC)CCCNc1ccc(-c2nnc(-c3ccc(OCC(C)C)cc3)o2)cn1,-94.2% (inactive)
17,Cc1ccc(S(=O)(=O)n2ccc3c(OCCOCCNCc4ccc(F)cc4)cccc32)cc1,-25.9% (inactive)
18,COc1ccc(-c2cc(NC=O)c3ncc(-c4ccccc4)n3c2)cc1OC,-38.6% (inactive)
19,COc1ccc(-c2cc(NC=O)c3ncc(-c4cccc(OC)c4)n3c2)cc1,-43.6% (inactive)
20,Cc1ccc(Nc2nc(NCc3ccco3)c3ccccc3n2)cc1,-25.2% (inactive)
21,CCCCC[C@@H](C)N1C[C@H](COCc2ccccc2)Oc2cc(N3CC[C@@H](N(C)C)C3)ccc2S1(=O)=O,-58.8% (inactive)
22,O=c1c2ccc(F)cc2sn1-c1ccccc1,-40.1% (inactive)
23,CC(C)(c1ccccc1)c1ccc(OCC(O)CNC2CCN(Cc3ccccc3)CC2)cc1 (configuration not stated),-98.8% (inactive)
24,O=C1CC(Sc2nnnn2-c2ccccc2)C(=O)N1c1cccc(Cl)c1 (configuration not stated),-30.8% (inactive)
25,O=C(CN1C(=O)/C(=C\c2cccc(Br)c2)Oc2ccccc21)NCCCN1CCOCC1,6.3% (inactive)
26,N#Cc1c(Nc2ccccc2Cl)s[nH]c1=O,-74.8% (inactive)
27,COc1ccc(-n2sc3ccccc3c2=O)cc1,0% (inactive)
